Where a name gives a salt, the structure may show the parent alone.
What was measured:
[1] = target: human recombinant KDM1A/CoREST protein (Homo sapiens, UniProt O60341); experiment: Assay of enzyme inhibition of KDM1A (LSD1), TR-FRET
Experimental: The intensity of the light emission is proportional to the level of biotinylated reaction product. The complex of human recombinant KDM1A/CoREST protein was produced in E. coli as separate proteins and co-purified as previously described.
Demethylase reaction was started by the addition of 50 nM histone H3K4 monomethylated.
The resulting mixture was incubated in the dark for 1 h at RT.

human leukemia NB4 cells = experiment: Cell growth, CellTiter-Fluor Cell Viability Assay, NB4; type: cell-based; conditions: NB-4, 48 h incubation, read-out: IC50 against human leukemia NB4 cells
Text: (§1) The CellTiter-Fluor™ Cell Viability Assay measures the conserved and constitutive protease activity within live cells and therefore acts as a marker for cell viability.
(§2) CellTiter-Flor® (Promega) is as a nonlytic, single-reagent-addition fluorescence assay that measures the relative number of living cells in a culture population after experimental manipulation. The CellTiter-Fluor™ Cell Viability Assay measures the conserved and constitutive protease activity within live cells and therefore acts as a marker for cell viability.
(§3) Human leukemia MV4-11 cells, (obtained from the Deutsche Sammlung von Mikroorganismen und Zellkulturen, ACC 102) or NB4 cells, (obtained from the Deutsche Sammlung von Mikroorganismen und Zellkulturen) in exponential growth, were incubated for 48 h with different concentrations of the inhibitors. After 48 h a volume of CellTiter-Fluor® Reagent equal to one fifth of volume of cell culture medium was added. The content was mixed and incubates for at least 90 min at 37° C. degree to obtain a stable signal. The fluorescence was recorded using an excitation wavelength of 360 nm and an emission at 535 nm. The IC50 was calculated using GraphPad Software.

[2] = test system: human leukemia MV4-11 cells; experiment: Cell growth, CellTiter-Fluor Cell Viability Assay, MV4-11; type: cell-based; conditions: 48 h incubation, read-out: IC50 against human leukemia MV4-11 cells
Text: as §1, §2, §3

Compound	IC50 [1] [µM]	IC50 (human leukemia NB4 cells) [µM]	IC50 [2] [µM]
Cn1c(C(=O)Nc2ccccc2COc2cccc(OC3CCNCC3)c2)cc2sccc21 [Example 18, 4-methyl-N-[2-[[3-(4-piperidyloxy)phenoxy]methyl]phenyl]thieno[3,2-b]pyrrole-5-carboxamide]	< 10	< 20	< 10
Cn1c(C(=O)Nc2ccccc2COc2ccc(OC3CCNC3)cc2)cc2sccc21 (stereo not drawn) [Example 16, 4-methyl-N-[2-[(4-pyrrolidin-3-yloxyphenoxy)methyl]phenyl]thieno[3,2-b]pyrrole-5-carboxamide]	< 10	< 20	< 10
Cn1c(C(=O)Nc2cccc(CN3CCOCC3)c2COc2ccc(OC3CCNCC3)cc2)cc2sccc21 [Example 54, 4-Methyl-N-[3-(morpholinomethyl)-2-[[4-(4-piperidyloxy)phenoxy]methyl]phenyl]thieno[3,2-b]pyrrole-5-carboxamide dihydrochloride]	< 10	< 20	< 10
CN1CCCC(COc2cccc(NC(=O)c3cc4sccc4n3C)c2)C1 (stereo not drawn) [Example 19, 4-methyl-N-[3-[(1-methyl-3-piperidyl)methoxy]phenyl]thieno[3,2-b]pyrrole-5-carboxamide]	< 10	< 20	< 10
CCn1c(C(=O)Nc2ccccc2COc2ccc(OC3CCN(C)CC3)cc2)cc2sccc21 [Example 12, 4-ethyl-N-[2-[[4-[(1-methyl-4-piperidyl)oxy]phenoxy]methyl]phenyl]thieno[3,2-b]pyrrole-5-carboxamide]	< 10	< 20	< 10
Cn1c(C(=O)Nc2ccccc2COc2ccc(OC[C@@H]3CCNC3)cc2)cc2sccc21 [Example 4, 4-methyl-N-[2-[[4-[[(3R)-pyrrolidin-3-yl]methoxy]phenoxy]methyl]phenyl]thieno[3,2-b]pyrrole-5-carboxamide]	< 10	< 20	< 10
Cn1c(C(=O)Nc2ccccc2COc2ccc(O[C@H]3CC[C@@H](N)CC3)cc2)cc2sccc21 [Example 9, N-[2-[[4-(cis-4-aminocyclohexoxy)phenoxy]methyl]phenyl]-4-methyl-thieno[3,2-b]pyrrole-5-carboxamide]	< 10	< 20	< 10
Cn1c(C(=O)Nc2ccccc2COc2ccc(OCC3CCNC3)cc2)cc2sccc21 (stereo not drawn) [Example 5, 4-methyl-N-[2-[[4-(pyrrolidin-3-ylmethoxy)phenoxy]methyl]phenyl]thieno[3,2-b]pyrrole-5-carboxamide]	< 10	< 20	< 10
CN1CCC(Oc2ccc(OCc3ccccc3NC(=O)c3cc4sccc4n3C)cc2)CC1 [Example 13, 4-methyl-N-[2-[[4-[(1-methyl-4-piperidyl)oxy]phenoxy]methyl]phenyl]thieno[3,2-b]pyrrole-5-carboxamide]	< 10	< 20	< 10
Cn1c(C(=O)Nc2ccccc2COc2ccc(OC[C@H]3CCNC3)cc2)cc2sccc21 [Example 11, 4-methyl-N-[2-[[4-[[(3S)-pyrrolidin-3-yl]methoxy]phenoxy]methyl]phenyl]thieno[3,2-b]pyrrole-5-carboxamide]	< 10	< 20	< 10
CN1CCC(Oc2cccc(OCc3ccccc3NC(=O)c3cc4sccc4n3C)c2)CC1 [Example 17, 4-methyl-N-[2-[[3-[(1-methyl-4-piperidyl)oxy]phenoxy]methyl]phenyl]thieno[3,2-b]pyrrole-5-carboxamide]	< 10	< 20	< 10
Cn1c(C(=O)Nc2ccccc2COc2ccc(OC3CCCNCC3)cc2)cc2sccc21 (stereo not drawn) [Example 7, N-[2-[[4-(azepan-4-yloxy)phenoxy]methyl]phenyl]-4-methyl-thieno[3,2-b]pyrrole-5-carboxamide hydrochloride]	< 10	< 20	< 10
CCn1c(C(=O)Nc2cccc(COc3ccc(OC4CCNCC4)cc3)c2)cc2sccc21 [Example 6, 4-ethyl-N-[3-[[4-(4-piperidyloxy)phenoxy]methyl]phenyl]thieno[3,2-b]pyrrole-5-carboxamide]	< 10	< 20	< 10
Cn1c(C(=O)Nc2ccccc2CNc2ccc(OC3CCNCC3)cc2)cc2sccc21 [Example 63, 4-Methyl-N-[2-[[4-(4-piperidyloxy)anilino]methyl]phenyl]thieno[3,2-b]pyrrole-5-carboxamide dihydrochloride]	< 10	< 20	< 10
Cn1c(C(=O)Nc2cccc(COc3ccc(OC4CCNCC4)cc3)c2)cc2sccc21 [Example 10, 4-methyl-N-[3-[[4-(4-piperidyloxy)phenoxy]methyl]phenyl]thieno[3,2-b]pyrrole-5-carboxamide]	< 10	< 20	< 10
Cn1c(C(=O)Nc2cccc(CCc3ccc(OC4CCNCC4)cc3)c2)cc2sccc21 [Example 62, 4-Methyl-N-[3-[2-[4-(4-piperidyloxy)phenyl]ethyl]phenyl]thieno[3,2-b]pyrrole-5-carboxamide hydrochloride]	< 10	< 20	< 10
Cn1c(C(=O)Nc2ccccc2COc2ccc(O[C@H]3CC[C@H](N)CC3)cc2)cc2sccc21 [Example 14, N-[2-[[4-(trans-4-aminocyclohexoxy)phenoxy]methyl]phenyl]-4-methyl-thieno[3,2-b]pyrrole-5-carboxamide]	< 10	< 20	< 10
CCOCc1cccc(NC(=O)c2cc3sccc3n2C)c1COc1ccc(OC2CCNCC2)cc1 [Example 50, N-[3-(Ethoxymethyl)-2-[[4-(4-piperidyloxy)phenoxy]methyl]phenyl]-4-methyl-thieno[3,2-b]pyrrole-5-carboxamide hydrochloride]	< 10	< 20	< 10
Cc1ccc(COc2ccc(OCC3CCNC3)cc2)c(NC(=O)c2cc3sccc3n2C)c1 (stereo not drawn) [Example 55, 4-Methyl-N-[5-methyl-2-[[4-(pyrrolidin-3-ylmethoxy)phenoxy]methyl]phenyl]thieno[3,2-b]pyrrole-5-carboxamide]	< 10	< 20	< 10

Reference: patent US10183952B2, “Thienopyrroles as histone demethylase inhibitors” (ISTITUTO EUROPEO DI ONCOLOGIA S.R.L., priority 2014, dated 2019)
